Laboratory results taken from patent US10336762B2 (priority 2017, dated 2019).
Like-named read-outs stand apart in the source and are kept apart here.

Assays:
IRAK4 enzyme = IRAK4 enzyme (Homo sapiens (Human), UniProt Q9NWZ3); assay: biochemical; assay type: biochemical; conditions: IRAK4 enzyme, 500 μM ATP
TNFα = assay: cells; assay type: cell-based, human; conditions: Homo sapiens, Monocyte, LPS-stimulated human monocytes, read-out: EC50 TNF

Chain of IRAK4 enzyme (Q9NWZ3 whole entry): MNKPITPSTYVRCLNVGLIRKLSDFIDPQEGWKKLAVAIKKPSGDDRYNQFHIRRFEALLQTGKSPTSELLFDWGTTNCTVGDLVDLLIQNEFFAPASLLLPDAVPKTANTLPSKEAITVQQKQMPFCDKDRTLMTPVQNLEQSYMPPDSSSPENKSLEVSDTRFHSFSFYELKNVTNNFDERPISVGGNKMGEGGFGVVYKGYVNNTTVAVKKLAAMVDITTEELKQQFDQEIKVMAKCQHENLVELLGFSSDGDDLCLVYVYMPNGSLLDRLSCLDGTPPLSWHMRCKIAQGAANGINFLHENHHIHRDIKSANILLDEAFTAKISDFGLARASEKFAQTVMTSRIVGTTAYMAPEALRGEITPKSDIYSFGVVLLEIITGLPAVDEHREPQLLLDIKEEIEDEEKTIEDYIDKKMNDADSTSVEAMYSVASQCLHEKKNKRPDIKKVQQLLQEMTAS

| Structure (SMILES) | IC50 (IRAK4 enzyme; TR-FRET) | EC50 (TNFα; TNFα content) | IC50 (IRAK4 enzyme; TR-FRET (HTRF)) | EC50 (TNFα; TNFα by TR-FRET) |
| --- | --- | --- | --- | --- |
| COC(=O)N[C@H]1CC[C@H](Nc2cc(-c3ccc4cc(C#N)cnn34)ncc2C(=O)NCC#N)CC1 [Example 268, Methyl ((1R,4R)-4-((5-((cyanomethyl)carbamoyl)-2-(3-cyanopyrrolo[1,2-b]pyridazin-7-yl)pyridin-4-yl)amino)cyclohexyl)carbamate] | < 1 nM | 29 nM | – | – |
| COC(=O)NCCNC(=O)c1cnc(-c2ccc3cc(C#N)cnn23)cc1NC12CCC(O)(CC1)CC2 [Example 746, methyl (2-(6-(3-cyano-pyrrolo[1,2-b]pyridazin-7-yl)-4-((4-hydroxy-bicyclo[2.2.2]octan-1-yl)amino)nicotinamido)ethyl)carbamate] | – | 105 nM | 1 nM | – |
| CC(C)Nc1cc(-c2ccc3cc(C#N)cnn23)ncc1C(=O)NCCNS(C)(=O)=O [Example 88, 6-(3-cyanopyrrolo[1,2-b]pyridazin-7-yl)-4-(isopropyl-amino)-N-(2-(methylsulfonamido)ethyl) nicotinamide] | 3 nM | 209 nM | – | – |
| CC(C)(O)[C@H](F)CNC(=O)c1cnc(-c2ccc3cc(C#N)cnn23)cc1N[C@@H]1C[C@H]2CNC[C@H]2C1 [Example 251, 6-(3-cyanopyrrolo[1,2-b]pyridazin-7-yl)-N-((R)-2-fluoro-3-hydroxy-3-methylbutyl)-4-(((3aR,5s,6aS)-octa-hydrocyclopenta[c]pyrrol-5-yl)amino) nicotinamide] | 1 nM | 117 nM | – | – |
| CC(C)(O)[C@H](F)CNC(=O)c1cnc(-c2ccc3cc(C#N)cnn23)cc1NC1COC1 [Example 54, (R)-6-(3-cyanopyrrolo[1,2-b]pyridazin-7-yl)-N-(2-fluoro-3-hydroxy-3-methylbutyl)-4-(oxetan-3-ylamino)nicotinamide] | < 1 nM | 26 nM | – | – |
| CC(C)(O)[C@H](F)CNC(=O)c1cnc(-c2ccc3cc(C#N)cnn23)cc1Nc1ccc(CO)cn1 [Example 670, (R)-6-(3-cyanopyrrolo[1,2-b]pyridazin-7-yl)-N-(2-fluoro-3-hydroxy-3-methylbutyl)-4-((5-(hydroxymethyl)pyridin-2-yl)amino)nicotinamide] | – | > 10000 nM | 93 nM | – |
| C[C@@H](O)C(=O)N1CCC(Nc2cc(-c3ccc4cc(C#N)cnn34)ncc2C(=O)NC[C@@H](F)C(C)(C)O)CC1 [Example 324, 6-(3-cyanopyrrolo[1,2-b]pyridazin-7-yl)-N-((R)-2-fluoro-3-hydroxy-3-methylbutyl)-4-((1-((R)-2-hydroxy-propanoyl)piperidin-4-yl)amino)nicotinamide] | 2 nM | 157 nM | – | – |
| COC(=O)N1CC2(CC(Nc3cc(-c4ccc5cc(C#N)cnn45)ncc3C(=O)NC[C@@H](F)C(C)(C)O)C2)C1 [Example 897, (R)-methyl 6-((2-(3-cyano-pyrrolo[1,2-b]pyridazin-7-yl)-5-((2-fluoro-3-hydroxy-3-methylbutyl)carbamoyl)pyridin-4-yl)amino)-2-azaspiro[3.3]heptane-2-carboxylate] | 2 nM | – | – | 421 nM |
| CC(C)(O)[C@H](F)CNC(=O)c1cnc(-c2ccc3cc(C#N)cnn23)cc1N[C@H]1C[C@H](Oc2ccccc2)C1 [Example 708, 6-(3-cyanopyrrolo[1,2-b]pyridazin-7-yl)-N-((R)-2-fluoro-3-hydroxy-3-methylbutyl)-4-(((1r,3R)-3-phenoxycyclobutyl)amino) nicotinamide] | – | 57 nM | 1 nM | – |
| COC(=O)NC[C@H]1C[C@H](Nc2cc(-c3ccc4cc(C#N)cnn34)ncc2C(=O)NCCC(C)(C)N)C1 [Example 819, methyl (((1r,3r)-3-((5-((3-amino-3-methylbutyl)carbamoyl)-2-(3-cyano-pyrrolo[1,2-b]pyridazin-7-yl)pyridin-4-yl)amino)cyclo-butyl)methyl)carbamate] | < 1 nM | – | – | 27 nM |
| COC(=O)N1CCC2(CC(Nc3cc(-c4ccc5cc(C#N)cnn45)ncc3C(=O)NC[C@@H](F)C(C)(C)O)C2)C1 (stereo partly drawn) [Example 903, (R)-methyl 2-((2-(3-cyano-pyrrolo[1,2-b]pyridazin-7-yl)-5-((2-fluoro-3-hydroxy-3-methylbutyl)carbamoyl)pyridin-4-yl)amino)-6-azaspiro[3.4]octane-6-carboxylate] | 1 nM | – | – | 79 nM |
| COC(=O)NC12CC(Nc3cc(-c4ccc5cc(C#N)cnn45)ncc3C(=O)NC[C@@H](F)C(C)(C)O)(C1)C2 [Example 507, (R)-methyl (3-((2-(3-cyanopyrrolo[1,2-b]pyridazin-7-yl)-5-((2-fluoro-3-hydroxy-3-methylbutyl)carbamoyl)pyridin-4-yl)amino)bicyclo[1.1.1]pentan-1-yl)carbamate] | – | 27 nM | < 1 nM | – |
| CCOc1cncc(Nc2cc(-c3ccc4cc(C#N)cnn34)ncc2C(=O)NC[C@@H](F)C(C)(C)O)n1 [Example 845, (R)-6-(3-cyanopyrrolo[1,2-b]pyridazin-7-yl)-4-((6-ethoxypyrazin-2-yl)amino)-N-(2-fluoro-3-hydroxy-3-methylbutyl)nicotinamide] | < 1 nM | – | – | > 10000 nM |
| CC(C)(O)[C@H](F)CNC(=O)c1cnc(-c2ccc3cc(C#N)cnn23)cc1Nc1cnn([C@@H]2CCOC2)c1 [Example 239, 6-(3-cyanopyrrolo[1,2-b]pyridazin-7-yl)-N-((R)-2-fluoro-3-hydroxy-3-methylbutyl)-4-((1-((R)-tetrahydrofuran-3-yl)-1H-pyrazol-4-yl)amino) nicotinamide] | < 1 nM | 24 nM | – | – |
| CNC(=O)[C@H](F)CNC(=O)c1cnc(-c2ccc3cc(C#N)cnn23)cc1NC12CCC(O)(CC1)CC2 [Example 945, (R)-6-(3-cyanopyrrolo[1,2-b]pyridazin-7-yl)-N-(2-fluoro-3-(methylamino)-3-oxopropyl)-4-((4-hydroxybicyclo[2.2.2]octan-1-yl)amino) nicotinamide] | 1 nM | – | – | 116 nM |
| CC(C)(O)[C@H](F)CNC(=O)c1cnc(-c2ccc3cc(C#N)cnn23)cc1Nc1ccc2c(c1)CNC2=O [Example 434, (R)-6-(3-cyanopyrrolo[1,2-b]pyridazin-7-yl)-N-(2-fluoro-3-hydroxy-3-methylbutyl)-4-((1-oxoisoindolin-5-yl)amino)nicotinamide] | – | 107 nM | < 1 nM | – |
| CC(C)(O)[C@H](F)CNC(=O)c1cnc(-c2ccc3cc(C#N)cnn23)cc1N[C@H]1C[C@H](CNCC(F)(F)F)C1 [Example 700, 6-(3-cyanopyrrolo[1,2-b]pyridazin-7-yl)-N—((R)-2-fluoro-3-hydroxy-3-methylbutyl)-4-(((1r,3R)-3-(((2,2,2-trifluoroethyl)amino)methyl)cyclobutyl)amino)nicotinamide] | – | 151 nM | 2 nM | – |
| CC(C)(O)[C@H](F)CNC(=O)c1cnc(-c2ccc3cc(C#N)cnn23)cc1NC1CCC(C(=O)N2CCOCC2)CC1 (stereo partly drawn) [Example 173, 6-(3-cyanopyrrolo[1,2-b]pyridazin-7-yl)-N-((R)-2-fluoro-3-hydroxy-3-methylbutyl)-4-(((1r,4R)-4-(morpholine-4-carbonyl)cyclohexyl)amino) nicotinamide] | 2 nM | 148 nM | – | – |
| COCC(=O)N[C@H]1CC[C@H](Nc2cc(-c3ccc4cc(C#N)cnn34)ncc2C(=O)NC[C@@H](F)C(C)(C)O)CC1 [Example 284, 6-(3-cyanopyrrolo[1,2-b]pyridazin-7-yl)-N-((R)-2-fluoro-3-hydroxy-3-methylbutyl)-4-(((1r,4R)-4-(2-methoxyacetamido)cyclohexyl)amino) nicotinamide] | 1 nM | 88 nM | – | – |
| CC(C)(F)[C@H](F)CNC(=O)c1cnc(-c2ccc3cc(C#N)cnn23)cc1NC12CCC(O)(CC1)CC2 [Example 353, (R)-6-(3-cyanopyrrolo[1,2-b]pyridazin-7-yl)-N-(2,3-difluoro-3-methylbutyl)-4-((4-hydroxybicyclo[2.2.2]octan-1-yl)amino) nicotinamide] | < 1 nM | 16 nM | – | – |
| CN1CCOc2cc(Nc3cc(-c4ccc5cc(C#N)cnn45)ncc3C(=O)NC[C@@H](F)C(C)(C)O)cnc21 [Example 856, (R)-6-(3-cyanopyrrolo[1,2-b]pyridazin-7-yl)-N-(2-fluoro-3-hydroxy-3-methylbutyl)-4-((4-methyl-3,4-dihydro-2H-pyrido[3,2-b][1,4]oxazin-7-yl)amino)nicotinamide] | 1 nM | – | – | 24 nM |
| CC(C)(O)[C@H](F)CNC(=O)c1cnc(-c2ccc3cc(C#N)cnn23)cc1Nc1cncc(OCC(F)(F)F)c1 [Example 857, (R)-6-(3-cyanopyrrolo[1,2-b]pyridazin-7-yl)-N-(2-fluoro-3-hydroxy-3-methylbutyl)-4-((5-(2,2,2-trifluoroethoxy)pyridin-3-yl)amino)nicotinamide] | < 1 nM | – | – | 9 nM |
| Cc1cncc(Nc2cc(-c3ccc4cc(C#N)cnn34)ncc2C(=O)NC[C@@H](F)C(C)(C)O)c1 [Example 233, (R)-6-(3-cyanopyrrolo[1,2-b]pyridazin-7-yl)-N-(2-fluoro-3-hydroxy-3-methylbutyl)-4-((5-methylpyridin-3-yl)amino)nicotinamide] | 1 nM | 170 nM | – | – |
| COCCCNc1cc(-c2ccc3cc(C#N)cnn23)ncc1C(=O)NC[C@@H](F)C(C)(C)O [Example 133, (R)-6-(3-cyanopyrrolo[1,2-b]pyridazin-7-yl)-N-(2-fluoro-3-hydroxy-3-methylbutyl)-4-((3-methoxypropyl)amino) nicotinamide] | 1 nM | 91 nM | – | – |
| CC1(C(=O)N[C@H]2CC[C@H](Nc3cc(-c4ccc5cc(C#N)cnn45)ncc3C(=O)NC[C@@H](F)C(C)(C)O)CC2)CC1 [Example 423, 6-(3-cyanopyrrolo[1,2-b]pyridazin-7-yl)-N-((R)-2-fluoro-3-hydroxy-3-methyl-butyl)-4-(((1r,4R)-4-(1-methylcyclopropane-1-carboxamido)cyclohexyl)amino)nicotinamide] | – | 94 nM | 2 nM | – |
